This note sets out measurements from patent US6214805A, “RNase L activators and antisense oligonucleotides effective to treat RSV infections” (priority 1997, dated 2001).

Test [1] relates to RSV strain A2. Nature of the test: Inhibition of RSV replication in RSV-infected 9HTE cells, virus plaque assay on CV-1 cells at 36 h post-infection. The test is classed as cell-based, Respiratory syncytial virus. The note with it: for % Inhibition of RSV replication: 9HTE cells, M.O.I. 2.0, 36 hrs post-infection. An excerpt: To develop 2-5A antisense chimeras with the potential to block RSV replication, an oligonucleotide binding site in the viral RNA polymerase (RSV L) mRNA, which encodes a low abundance message that is absolutely required for RSV replication was selected. The first chimera synthesized and evaluated was pA4 -antiRSV/(8490-8509). The binding sites for the chimeric oligonucleotide's antisense domain are to the transcripts of nucleotides 8490-8509 in the RSV genome, which spans the translation start codon for the L protein, and to nucleotides 8490-8509 of the antigenomic strand (the template for reproduction of the genome). Since to function as an effective treatment, a candidate agent must be able to inhibit viral replication subsequent to diagnosis, the anti-RSV effect of the 2-5A antisense chimera was determined on human tracheal epithelial cells, 9HTE, with treatments beginning either 4 h before RSV infection (pre-/post-infection treatments) or 2 h following infection (post-infection treatments). In the post-infection treatments, pA4 -antiRSV/([…]), was added at t+2, t+14 and t+26, (numbers represent time in h relative to time of infection, 0) For pre-infection treatment, pA4 -antiRSV/(8490-8509) (10 μM final concentration), was added at t-4, and t0 in addition to […]; t+14 and t+26. Virus harvested from control and oligonucleotide-treated 9HTE cells was measured by infecting CV-1 cells and subsequently counting viral plaques. […] On the basis of these experiments, all subsequent experiments were performed with post-infectiontreatments only. Additionally, these experiments indicate the potential use of these compounds as a treatment for active infection as compared to a prophylactic measure.
The human tracheal epithelial cell line, 9HTE, (Gruenert et al., 1988) and CV-1 cells, (American Type Culture Collection, Rockville, Md., CCI#70) a green monkey kidney cell line which is highly permissive to RSV infection, were cultured in minimal essential medium (MEM) supplemented with 10% (v/v) fetal bovine serum (FBS), 2 mM L-glutamine, 1× MEM amino acids solution, 1× MEM non-essential amino acids solution, 100 U/ml penicillin, 100 μg/ml streptomycin and 0.25 μg/ml amphotericin B ("culture medium") (all reagents from Gibco BRL, Bethesda, Md.). RSV strain A2 (ATCC No. VR1302) was propagated in CV-1 cells. CV-1 monolayers were infected at a multiplicity of infection (M.O.I.) of 0.2 and cultured 46 h in MEM, 2% FBS, 1× Penicillin/Streptomycin (PS) in 5% CO2, 95% O2 at 37° C. Cells were then washed 2 times in MEM and subsequently covered in MEM, 2% FBS, 1× PS, 50 mM HEPES (pH7.5), 100 mM Mg(SO4). After 2 h at 37° C., cells were scraped and sonicated as previously described (Panuska et al., 1995). Aliquots (1 ml each) of cell sonicates were flash frozen in ethanol/dry ice within 20 min of scraping. Several aliquots were then thawed and titered by a plaque assay on CV-1 cells as previously described (Cirino et al., 1993). The range of virus yield from this procedure was 2 to 7×10^6 plaque forming units (pfu) per ml.
Infection of 9HTE cells was performed as previously described (Merolla et al., 1994). Briefly, confluent monolayers were exposed to RSV diluted in MEM, 2% FBS, for 2 h at 37° C. in 5% CO2, 95% O2. After exposure, cells were washed two times with serum-free MEM media and then fresh culture media (with 10% FBS) was added. Oligonucleotides were either added 4 h prior to infection (t-4) or immediately after infection (t+2) and also at t+14 and t+26. Cells were harvested for plaque assays at 36 h post-infection to determine viral titers as previously described (Cirino et al., 1993). Cells were washed twice to remove any residual antisense and were then scraped in MEM containing 2% FBS, 1× PS. 9HTE cells were sonicated for 20 sec on ice then the extracts were serially diluted and transferred to a confluent monolayer of CV-1 for quantitation of infectious viral particles. […]

The next test has as its system RSV M2 RNA. Put plainly: RT-PCR of M2 RNA from RSV-infected 9HTE cells. In kind it is cell-based, Respiratory syncytial virus. To be noted: RNA at 8 h post-infection, M.O.I.=10. The protocol:
To determine if RSV RNA levels correlated with antiviral activity, RT-PCR analysis was performed on RNA isolated from RSV-infected and uninfected 9HTE cells with and without treatment with spA4 -antiRSV3'3'T/(8281-8299) or spA4 -antiRSV3'3'A/(8530-8547). An M2 RNA sequence in RSV (from nucleotides 7879 to 8465) was converted to cDNA and amplified by PCR. M2 RNA from the RSV-infected cells produced an RT-PCR DNA product that was clearly visible. […] Levels of GAPDH transcripts were similar in all of these RNA preparations.
RNA was collected from 2×10^5 9HTE cells at 8 h post-infection (M.O.I.=10) by RNAzol treatment as described by the manufacturer (Tel-Test, Inc, Freindswood, Tex.). RNA was isolated after 8 h to limit RSV replication to a single cycle. Isolated RNA (≈1 μg) was incubated with 100 pmoles of the appropriate downstream (-) primer listed below or 100 pmoles of random hexamer (used for glyceraldehyde-3-phosphatedehydrogenase, GAPDH, mRNA only). RNA and primers were heated to 70° C. for 10 min then cooled rapidly on ice for 5 min. […]
25 μl Hot-Start upper buffer contained 5 U Taq DNA polymerase (GibcoBRL) and 1/10th of the cDNA from the RT reaction. […] Aliquots of the RT/PCR mixtures were analyzed on 1% agarose/TBE gels.

For test [2], the system named is RSV strain A2. Put plainly: Antiviral activity in Hep-2 cells, neutral red (reduction of RSV-induced CPE). The test is classed as cell-based, Respiratory syncytial virus. The note with it: neutral red, MOI = 0.005, added twice daily for 4 d, read on d 5. The text has this: (§1) A comparison of the efficacies of spA4 -antiRSV3'3'T/(8281-8299) treatment and conventional ribarvirin treatment can be obtained by determining the RSV-inhibitory concentration and the cytotoxic concentration of each compound. Cultures of the human laryngeal carcinoma cell line HEp-2 and the […] renal cell line MA-104 were established and infected with an MOI=0.005. Cultures were fed twice daily. Treatment with either ribavirin or spA4 -antiRSV3'3'T/(8281-8299) was begun simultaneously with infection and continued for four days. Treatment was then withdrawn and the test read on day 5. The effects of treatment on RSV infection were reported as 1) an EC50, the concentration at which there was a 50% reduction in the observable cytopathic effects of infection and 2) an EC90, the concentration at which there was a 90% reduction in viral production. […] Therapeutic efficacy is estimated by the Selectivity Index, which is the ratio of IC50 /EC50.
determined with RSV strain A2, MOI = 0.005
(§2) Fresh medium and oligo or ribavirin added twice daily for 4 d and test read
(§3) EC50 effective concentration to reduce RSV-induced CPE by 50%.

The next test has as its system Hep-2 Cells. Put plainly: Cytotoxicity to Hep-2 cells (visual and dye uptake, rapidly dividing cells). The test is classed as cell-based, human.
Description: as §1
(§4) IC50 50% inhibitory concentration for cytotoxicity to cells (visual

Test [3] has as its system RSV strain A2. Nature of the test: Antiviral activity in MA-104 cells, visual CPE. The test is classed as cell-based, Respiratory syncytial virus. The note with it: visual CPE, MOI = 0.005, added twice daily for 4 d, read on d 5.
Description: as §1
(§5) as determined with RSV strain A2, MOI = 0.005
as §2, §3

The test system of test [4] is RSV strain A2. Nature of the test: Virus yield reduction in MA-104 cells. The test is classed as cell-based, Respiratory syncytial virus. The note with it: RSV yield reduced by 90%, MOI = 0.005, added twice daily for 4 d.
Description: as §1, §5, §2
EC90 effective concentration to reduce RSV yield by 90%.

Another test concerns MA-104 Cells. Put plainly: Cytotoxicity to MA-104 cells (visual and dye uptake, rapidly dividing cells). In kind it is cell-based, murine.
Description: as §1, §4

What is called EC50 is the midpoint of the concentration-response curve. A lower EC50 goes with greater potency. A word on the IC50: it is the concentration that inhibits the measured activity by half. As a reminder, the EC90 is the concentration at which the effect reaches the 90% level. Read a high EC90 as weaker potency. On to “spA2'p(A2'p)3 -[(Bu)p]2 -(5'atg gtt att tgg gtt gtt3'-3't5') [spA4-antiRSV3'-3'T/(8281-8299)]”, for which the “% Inhibition of RSV replication” value with RSV strain A2 [1] (3.3 μM oligonucleotide/treatment at t+2, t+14, t+26 h) amounted to 91.3%; in the test with RSV strain A2 [1] (6.6 μM oligonucleotide/treatment at t+2, t+14, t+26 h), 97%; in the test with RSV strain A2 [1] (9.9 μM oligonucleotide/treatment at t+2, t+14, t+26 h), 99.6%. In addition, the “comparison of anti-RSV activities (FIG. 3)” value in the test on RSV strain A2 [1] (spA4-linked versus spA2-linked oligonucleotide) is recorded as “greater potency”. Moreover, the “M2 RNA RT-PCR product” value in the test on RSV M2 RNA is reported as “no M2 RNA detected”. Moreover, the EC50 in the test with RSV strain A2 [2] was 300 nM; in the test with RSV strain A2 [3], 20 nM. Besides, the IC50 with Hep-2 Cells and in the test with MA-104 Cells was above 10000 nM throughout. Moreover, the EC90 with RSV strain A2 [4] was determined as 20 nM.
